Measured values taken from patent EP0392423A2, “Substituted 1,4-7-10-tetraazacyclotridecanes, method for their preparation and use of the same for labelling substances with radionuclides” (priority 1989, dated 1990).
Read-outs that look alike come from different tables or passages of the source.

Test system: Transferrin
Conditions: human, serum
Method: Bei diesen Vergleichsversuchen wurde ¹¹¹In sowohl mit den bekannten 12- und 14-Ring-Cyclamen als auch mit dem erfindungsgemäßen Cyclam aus Beispiel 1 komplexiert und anschließend jeweils der ¹¹¹In-Austausch gegen Transferrin - ein bekanntermaßen gutes Komplexierungsmittel - in humanem Serum bei 37°C untersucht.

Row | ¹¹¹In-Austausch gegen Transferrin (12 h) | ¹¹¹In-Austausch gegen Transferrin (120 h) | Substance
1 | ca. 0,3% | ca. 4% | Dodecatetraacetate [DOTA]
2 | < 0,1% | ca. 1% | 12-(p-Nitrobenzyl)-1,4,7,10-tetraacetat-1,4,7,10-tetraazacyclotridecan [Beispiel 1]
